Results as given in patent US20220378814A1, “COMPOSITION OF PHYTONUTRIENTS FOR OBESITY PREVENTION” (ROSEMAN UNIVERSITY OF HEALTH SCIENCES, priority 2021, published 2022).
Several values for one entry are separate records, joined by “and”; a condition that tells them apart may be missing. Equal entries are not always repeated.

The compounds below were run on human primary preadipocytes (assay: Suppression of adipogenesis in cultures of human primary preadipocytes (EC50)).
Type: cell-based

Compound	EC50
COc1ccc2cc3[n+](cc2c1OC)CCc1cc2c(cc1-3)OCO2 [Phytonutrient C1, Berberine]	10 µM and 3.5 µg/mL
O=c1cc(-c2ccc(O)c(O)c2)oc2cc(O)cc(O)c12 [Phytonutrient C2, Luteolin]	20 µM and 5.7 µg/mL
Oc1ccc(/C=C/c2cc(O)cc(O)c2)cc1 [Phytonutrient C3, Resveratrol]	40 µM and 9.1 µg/mL
O=c1c(O)c(-c2ccc(O)c(O)c2)oc2cc(O)ccc12 [Phytonutrient C4, Fisetin]	50 µM and 14.3 µg/mL
O=c1c(O)c(-c2ccc(O)c(O)c2)oc2cc(O)cc(O)c12 [Phytonutrient C5, Quercetin]	25 µM and 7.6 µg/mL
O=C(OC1Cc2c(O)cc(O)cc2OC1c1cc(O)c(O)c(O)c1)c1cc(O)c(O)c(O)c1 (stereo not shown) [Phytonutrient C7, Epigallocatechin Gallate (EGCG)]	20 µM and 9.2 µg/mL
COc1cc(/C=C/C(=O)/C=C(O)/C=C/c2ccc(O)c(OC)c2)ccc1O [Phytonutrient C9, Curcumin]	20 µM and 7.5 µg/mL
